Laboratory results as given in patent EP0000644A2, “Lower cycloalkyl substituted-benzene derivatives, the preparation thereof and their pharmaceutical compositions” (FUJISAWA PHARMACEUTICAL CO., LTD., priority 1977, dated 1979).
Values after ≈ are worked out from the molar mass of the structure shown. Where a name gives a salt, the structure may show the parent alone. Read-outs that look alike come from different tables or passages of the source.

Experiments:
erythema = assay: Ultra-violet erythema test, oral administration; assay type: in vivo, Hartley rats; settings: ten animals per group; oral suspension, half one hour before and half just after ultra-violet radiation; erythema scored two hours later; effective when total of 3 points below 1.5; read-out: Score
Description: Ten male 5 week old Hartley rats, each weighing about 350 g., were used per group. The backs of each animal were depilated 24 hours before the test. An adhesive tape with 3 small holes of 9 mm. diameter was placed on the depilated skin and then the animal was exposed to ultra-violet radiation from an ultra-violet lamp (500 W, manufactured by Engelhard Hanovia Inc.) at a distance of 13 cm. for 80 seconds. Two hours later, the degree of erythema was estimated on the basis of the following scores: • 1.0 : eryhthema with clear border, • 0.5 : erythema with unclear border, • 0.0 : scarcely any erythema.
The valuation was determined as follows:
Each dosage of the test compound was administered orally in a suspension form in 20 ml. of 0.5% aqueous methyl cellosolve aqueous solution. Half of the test sample was administered one hour before the radiation and the remaining half of the test solution was administered just after radiation.

strip of stomach fundus = assay: Contraction of isolated stomach fundus strip induced by arachidonic acid; assay type: cell-based, Sprague-Dawley rats; settings: Rattus norvegicus, 0.25 h
Description: The stomach was removed from Sprague-Dawley rats, weighing about 180 g., after the animals were fasted overnight. A strip of stomach fundus was suspended under initial tension of 0.6 g. in a 10 ml. organ bath containing Tyrode solution. Arachidonic acid (1.0 x 10^-5 g/ml.) was employed as the spasmogen. Several doses of the test compound were added to the individnal bath fluid 15 minutes before the addition of arachidonic acid. The value of contraction induced by arachidonic acid was measured and plotted as a dose-activity curve. The ED50 value of each test compound was obtained by interpolation from the dose-activity curve.

[1] = arachidonic acid 1.0 x 10^-5 g/ml. as spasmogen, test compound added 15 minutes before, interpolated from dose-activity curve, read-out: ED50 (the source's name)

| IC50 (strip of stomach fundus; [1]) [µg/mL] | SMILES | minimal effective dose (erythema) [mg/kg] | IC50 (strip of stomach fundus; read-out: ED50) [µg/mL] |
| --- | --- | --- | --- |
| 1.2 (≈ 4.46 µM) | OCC(CO)c1ccc(C2CCCCC2)c(Cl)c1 [Example 7-(1), 2-(3-chloro-4-cyclohexylphenyl)propane-1,3-diol] | 8 to 10 | – |
| – | CNCC(CO)c1ccc(C2CCCCC2)cc1 (centres unmarked) [21-(2), 2-(4-cyclohcxylphenyl)-3-mcthylaminopropanol hydrochloride] | 8 to 10 | – |
| – | COC(=O)C(CN1CCCCC1)c1ccc(C2CCCCC2)c(Cl)c1 (centres unmarked) [Example 11, methyl 2-(3-chloro-4-cyclohexylphcnyl)-3-piperidinopropionate hydrochloride] | 8 to 10 | – |
| – | CC(=O)CC(CO)c1ccc(C2CCCCC2)cc1 (centres unmarked) [16-(3), 2-(4-cyclohexylphenyl)-3-acetylpropanol] | 8 to 10 | – |
| 0.084 | COCC(C(=O)O)c1ccc(C2CCCCC2)c(Cl)c1 (centres unmarked) [4-(3), sodium 2-(3-chloro-4-cyclohexylphenyl)-3-methoxypropionatc] | 8 to 10 | – |
| – | COCC(CO)c1ccc(C2CCCCC2)c(Cl)c1 (centres unmarked) [Example 23, 2-(3-chloro-4-cyclohexylphenyl)-3-methoxypropanol] | 8 to 10 | – |
| – | CC(=O)Oc1ccccc1C(=O)O [aspirin, reference compound] | – | 3.1 (≈ 17.2 µM) |
| 0.5 (≈ 1.77 µM) | COCC(CO)c1ccc(C2CCCCC2)c(Cl)c1 (centres unmarked) [7-(2), 2-(3-chloro-4-cyclohexylphenyl)-3-methoxypropanol] | – | – |
| 2.6 (≈ 10.5 µM) | O=C(O)C(CO)c1ccc(C2CCCCC2)cc1 (centres unmarked) [Example 2, p-cyclohexyltropic acid] | 8 to 10 | – |
| – | CCCOCC(C(=O)[O-])c1ccc(C2CCCCC2)cc1.[Na+] (centres unmarked) [12-(2), sodium 2-(4-cyclohexylphenyl)-3-propoxypropionate] | 8 to 10 | 2.6 |
| 3.2 (≈ 11.7 µM) | CC(=O)CC(C(=O)O)c1ccc(C2CCCCC2)cc1 (centres unmarked) [15-(2), 2-(4-cyclohexylphenyl)-3-acetylpropionic acid] | 8 to 10 | – |
| – | CC(=O)OCC(COC(C)=O)c1ccc(C2CCCCC2)c(Cl)c1 [Example 8, 1,3-diacetoxy-2-(3-chloro-4-cyclohexylphenyl)propane] | 8 to 10 | – |
| 1.3 (≈ 4.96 µM) | COCC(C(=O)O)c1ccc(C2CCCCC2)cc1 (centres unmarked) [17-(2), 2-(4 cyclohexylphenyl)-3-methoxypropionic acid] | 8 to 10 | – |
| 22 (≈ 70.6 µM) | CS(=O)(=O)NCC(CO)c1ccc(C2CCCCC2)cc1 (centres unmarked) [14-(3), 2-(4-cyclohexylphenyl)-3-mesylaminopropanol] | 8 to 10 | – |
| 0.26 (≈ 0.919 µM) | O=C(O)C(CO)c1ccc(C2CCCCC2)c(Cl)c1 (centres unmarked) [Example 9, m-chloro-p-cyclohexyl tropic acid] | 8 to 10 | – |
| 4.2 (≈ 13.6 µM) | CC(=O)CC(C(=O)O)c1ccc(C2CCCCC2)c(Cl)c1 (centres unmarked) [24-(2), 2-(3-chloro-4-cyclohexylphenyl)-3-acetylpropionic acid] | 8 to 10 | – |
| – | COCC(COC(=O)COc1ccc(Cl)cc1)c1ccc(C2CCCCC2)cc1 (centres unmarked) [Example 20, 1-(4-chlorophenoxyacetoxy)-2-(4-cyclohexylphenyl)-3-methoxypropane] | 8 to 10 | – |
| – | CNCC(C(=O)O)c1ccc(C2CCCCC2)cc1 (centres unmarked) [Example 22, sodium 2-(4-cyclohexylphenyl)-3-methylaminopropionate monohydrate] | 8 to 10 | – |

| SMILES | IC50 (strip of stomach fundus; [1]) [µg/mL] | minimal effective dose (erythema) [mg/kg] | IC50 (strip of stomach fundus; read-out: ED50) [µg/mL] |
| --- | --- | --- | --- |
| COC(=O)C(COC(C)=O)c1ccc(C2CCCCC2)c(Cl)c1 (centres unmarked) [5-(3), methyl 3-acetoxy-2-(3-chloro-4-cyclohexylphenyl) propionate] | 0.12 (≈ 0.354 µM) | 8 to 10 | – |
